The target in this experiment is SMARCA4 (Homo sapiens, UniProt P51532). As to the kind of experiment: TR-FRET ligand displacement assay with recombinant bromodomain and BET ligand. The class given is binding. As to conditions: read-out: % inhibition at 10 μM.

As a reminder, the inhibition is the share of the control response that was lost under treatment.

SMARCA4, sequence (P51532 1453-1564 limits assumed): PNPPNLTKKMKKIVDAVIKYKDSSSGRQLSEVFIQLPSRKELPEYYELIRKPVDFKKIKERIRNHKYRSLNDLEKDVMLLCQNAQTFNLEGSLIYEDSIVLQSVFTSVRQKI

Take `O=C(/C=C/N1C[C@H]2C[C@@H]1CN2c1ccccn1)c1ccccc1O` [PFI-3]: the inhibition at 10 µM was found to be 95%.

Values taken from paper PMC6432638 (Science signaling, 2018).
